Reference: ChEMBL document CHEMBL5532680, “Identification of a Sonically Activated Degrader of Methionine Adenosyltransferase 2A by an in Silico Approach Assisted with the Hole-Electron Analysis” (J Med Chem, 2024)
Activity calls are given as the source filed them. The calls are words filed in the database; no cut-off is given here.

Tests used:
[1] = test system: HCT-116; experiment: Antiproliferative activity against wild type human HCT-116 cells assessed as cell viability at 10 uM under 4 mins sonication; format: functional; conditions: HCT-116, 4 min, read-out: Activity
[2] = Toxicity in BALB/c mouse xenografted with human HCT-116 cells assessed as heart damage at 100 mg/kg, po by H and E staining based assay; format: organism-based; conditions: in vivo
[3] = target: T1, Cytochrome P450 1A2 (Homo sapiens, UniProt P05177); experiment: Inhibition of CYP1A2 (unknown origin); format: ADME
T1 sequence (P05177 whole entry): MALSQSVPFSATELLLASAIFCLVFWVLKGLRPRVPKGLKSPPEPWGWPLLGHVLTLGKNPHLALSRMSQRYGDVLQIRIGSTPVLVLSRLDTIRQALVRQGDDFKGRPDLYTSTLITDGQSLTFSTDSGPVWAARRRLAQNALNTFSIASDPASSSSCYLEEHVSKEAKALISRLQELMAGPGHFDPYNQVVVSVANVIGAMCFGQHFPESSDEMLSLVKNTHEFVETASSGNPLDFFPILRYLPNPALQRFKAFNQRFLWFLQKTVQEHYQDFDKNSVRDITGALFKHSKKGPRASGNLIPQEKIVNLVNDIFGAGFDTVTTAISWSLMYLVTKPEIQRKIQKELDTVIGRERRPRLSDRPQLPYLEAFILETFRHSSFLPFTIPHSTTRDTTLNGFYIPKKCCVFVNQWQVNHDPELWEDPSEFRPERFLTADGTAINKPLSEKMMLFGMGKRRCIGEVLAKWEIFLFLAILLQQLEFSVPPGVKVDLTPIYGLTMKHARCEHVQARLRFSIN

[4] = test system: HCT-116; experiment: Antitumor activity against […] knocked out human HCT-116 cells xenografted in BALB/c mouse assessed as tumor regression at 10 mg/kg, po administered once a day followed by 4 mins sonication post 6 hrs of compound administration and measured for 3 weeks; format: functional
[5] = target: T2, S-adenosylmethionine synthase isoform type-2 (Homo sapiens, UniProt P31153); experiment: Induction of MAT2A degradation in human HCT-116 cells preincubated for 4 hrs followed by 1.0 MHz, 0.8W/cm2 ultrasound treatment for 0.5 mins by Western blotting assay; format: cell-based
Target sequence in this assay (P31153 whole entry, canonical isoform): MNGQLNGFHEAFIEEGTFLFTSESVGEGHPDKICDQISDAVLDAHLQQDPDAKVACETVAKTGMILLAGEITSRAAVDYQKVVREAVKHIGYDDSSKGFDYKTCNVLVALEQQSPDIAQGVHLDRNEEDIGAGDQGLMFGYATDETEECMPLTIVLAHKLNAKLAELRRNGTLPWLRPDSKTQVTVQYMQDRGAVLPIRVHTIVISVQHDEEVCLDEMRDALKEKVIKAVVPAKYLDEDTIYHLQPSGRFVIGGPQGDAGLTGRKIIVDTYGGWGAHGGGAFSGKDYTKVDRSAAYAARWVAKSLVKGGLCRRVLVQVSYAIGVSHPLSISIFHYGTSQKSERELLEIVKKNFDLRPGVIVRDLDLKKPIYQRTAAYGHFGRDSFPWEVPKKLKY

[6] = AUC(0 to 24 hrs) in BALB/c mouse at 10 mg/kg, po measured upto 24 hrs by LC-MS/MS analysis; format: ADME, organism-based; conditions: in vivo
[7] = Biodistribution in […] knocked out human HCT-116 cells xenografted in BALB/c mouse assessed as fluorescence intensity in heart at 10 mg/kg, po measured after 24 hrs; format: ADME, organism-based; conditions: in vivo
[8] = Biodistribution in MATP knocked out human HCT-116 cells xenografted in BALB/c mouse assessed as fluorescence intensity in skin at 10 mg/kg, po measured after 24 hrs; format: ADME, organism-based; conditions: in vivo
[9] = Toxicity in BALB/c mouse xenografted with human HCT-116 cells assessed as liver damage at 10 mg/kg, po by H and E staining based assay; format: organism-based; conditions: in vivo
[10] = Toxicity in BALB/c mouse xenografted with human HCT-116 cells assessed as spleen damage at 100 mg/kg, po by H and E staining based assay; format: organism-based; conditions: in vivo
[11] = Mean residence time in BALB/c mouse at 10 mg/kg, po measured upto 24 hrs by LC-MS/MS analysis; format: ADME, organism-based; conditions: in vivo
[12] = test system: HCT-116; experiment: Antiproliferative activity against MTAP knocked out human HCT-116 cells under 4 mins sonication; format: functional, cell-based; conditions: HCT-116, 4 min
[13] = Toxicity in BALB/c mouse xenografted with human HCT-116 cells assessed as lung damage at 10 mg/kg, po by H and E staining based assay; format: organism-based; conditions: in vivo
[14] = Toxicity in BALB/c mouse xenografted with human HCT-116 cells assessed as change in liver cell nucleus shape at 100 mg/kg, po by H and E staining based assay; format: organism-based; conditions: in vivo
[15] = test system: HCT-116; experiment: Antitumor activity against […] knocked out human HCT-116 cells xenografted in BALB/c mouse assessed as tumor growth inhibition at 10 mg/kg, po administered once a day followed by 4 mins sonication post 6 hrs of compound administration and measured for 3 weeks; format: functional; conditions: HCT-116, 504 h, read-out: TGI
[16] = Toxicity in BALB/c mouse xenografted with human HCT-116 cells assessed as heart damage at 10 mg/kg, po by H and E staining based assay; format: organism-based; conditions: in vivo
[17] = Intrinsic clearance in human liver microsomes; format: ADME, Microsome; conditions: read-out: CLH
[18] = Drug metabolism in BALB/c mouse blood after 24 hrs; format: ADME, tissue-based
[19] = Apparent permeability in MDCKII-MDR1 cells; format: ADME, cell-based, Canis lupus familiaris; conditions: dog, MDCK-MDR1
[20] = Biodistribution in MATP knocked out human HCT-116 cells xenografted in BALB/c mouse assessed as fluorescence intensity in liver at 10 mg/kg, po measured after 24 hrs; format: ADME, organism-based; conditions: in vivo
[21] = AUC in ICR mouse at 10 mg/kg, po measured upto 24 hrs by LC-MS/MS analysis; format: ADME, organism-based; conditions: in vivo
[22] = target: T2, S-adenosylmethionine synthase isoform type-2; experiment: Induction of MAT2A degradation in human HCT-116 cells assessed as MAT2A level at 0.1 uM preincubated for 4 hrs followed by 1.0 MHz, 0.8W/cm2 ultrasound treatment for 4 mins and measured upto 24 hrs by Western blotting assay; format: cell-based; conditions: time <= 1684.0 min
Target sequence in this assay (P31153 whole entry, looked up, canonical isoform): as the sequence (P31153 whole entry, canonical isoform) above

[23] = test system: HCT-116; experiment: Antiproliferative activity against MTAP knocked out human HCT-116 cells under 1 min sonication; format: functional, cell-based; conditions: HCT-116, 1 min
[24] = Cmax in ICR mouse at 10 mg/kg, po measured upto 24 hrs by LC-MS/MS analysis; format: ADME, organism-based; conditions: in vivo
[25] = target: Cytochrome P450 2D6 (Homo sapiens, UniProt P10635); experiment: Inhibition of CYP2D6 (unknown origin); format: ADME
[26] = Half-life in ICR mouse at 1 mg/kg, iv measured upto 24 hrs by LC-MS/MS analysis; format: ADME, organism-based; conditions: in vivo
[27] = Oral bioavailability in BALB/c mouse at 10 mg/kg measured upto 24 hrs by LC-MS/MS analysis; format: ADME, organism-based; conditions: in vivo
[28] = target: T2, S-adenosylmethionine synthase isoform type-2; experiment: Induction of MAT2A degradation in human HCT-116 cells assessed as MAT2A level at 0.1 uM preincubated for 4 hrs followed by 1.0 MHz, 0.8W/cm2 ultrasound treatment for 4 mins by Western blotting assay; format: cell-based; conditions: time 244.0 min
Target sequence in this assay (P31153 whole entry, looked up, canonical isoform): as the sequence (P31153 whole entry, canonical isoform) above

[29] = Toxicity in BALB/c mouse xenografted with human HCT-116 cells assessed as kidney damage at 10 mg/kg, po by H and E staining based assay; format: organism-based; conditions: in vivo
[30] = target: T2, S-adenosylmethionine synthase isoform type-2; experiment: Inhibition of recombinant human MAT2A expressed in baculovirus infected Sf9 cells at grated than 10 nM using L-methione as substrate preincubated for 15 mins followed by substrate addition and measured after 60 mins in presence of ATP by Kinase-Glo luminescent assay; conditions: time 75.0 min
Target sequence in this assay (P31153 whole entry, looked up, canonical isoform): as the sequence (P31153 whole entry, canonical isoform) above

[31] = Toxicity in BALB/c mouse xenografted with human HCT-116 cells assessed as lung damage at 100 mg/kg, po by H and E staining based assay; format: organism-based; conditions: in vivo
[32] = Tmax in BALB/c mouse at 10 mg/kg, po measured upto 24 hrs by LC-MS/MS analysis; format: ADME, organism-based; conditions: in vivo

Sequence of Cytochrome P450 2D6 (P10635 whole entry): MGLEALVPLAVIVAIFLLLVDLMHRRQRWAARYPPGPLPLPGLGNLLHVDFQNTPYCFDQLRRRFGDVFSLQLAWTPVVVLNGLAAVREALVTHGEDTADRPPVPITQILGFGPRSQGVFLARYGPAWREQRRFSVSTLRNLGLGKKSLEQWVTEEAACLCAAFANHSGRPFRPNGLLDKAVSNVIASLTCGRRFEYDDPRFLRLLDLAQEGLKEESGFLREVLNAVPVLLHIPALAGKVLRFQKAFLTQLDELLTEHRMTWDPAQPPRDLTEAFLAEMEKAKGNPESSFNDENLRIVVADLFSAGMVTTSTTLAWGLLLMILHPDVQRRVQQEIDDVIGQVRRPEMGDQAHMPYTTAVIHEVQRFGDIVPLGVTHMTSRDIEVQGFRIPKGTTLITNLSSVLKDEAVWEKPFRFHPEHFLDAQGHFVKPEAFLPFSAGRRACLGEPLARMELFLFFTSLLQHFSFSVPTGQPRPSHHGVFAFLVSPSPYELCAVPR

IC50 [3]: > 50000 nM
EC50 [5]: 360 nM
AUC [6]: 9714 ng·h/mL
Drug uptake [7]: Not Active
Drug uptake [8]: Active
MRT [11]: 5.1 h
IC50 [12]: 42 nM
CLint scaled [17]: 9.6 mL/min/kg
Drug metabolism [18]: Metabolite_Detected
Papp [19]: 13.4 ×10⁻⁶ cm/s
Drug uptake [20]: Active
AUC at 24 h [21]: 9710 ng·h/mL
Activity [22]: Active
IC50 [23]: 79 nM
Cmax [24]: 1380 ng/mL
IC50 [25]: 39000 nM
half-life [26]: 1.6 h
F [27]: 77%
Activity [28]: 13%
inhibition [30]: Active
Tmax [32]: 1 h
Structure (SMILES): CCOc1ncc2cc(-c3ccc4c(c3)N3CCCC3CO4)c(=O)n(-c3ccc(OC(F)F)cc3)c2n1 (configuration not stated)
viability at 10 µM [1]: 77%
Activity [2]: Non-Toxic
Activity [4]: 31%
Activity [9]: Non-Toxic
Activity [10]: Non-Toxic
Activity [13]: Non-Toxic
Activity [14]: Toxic
inhibition in vivo at 10 mg/kg [15]: 103%
Activity [16]: Non-Toxic
Activity [29]: Non-Toxic
Activity [31]: Non-Toxic
